What is called IC50 is the point on the concentration scale where inhibition reaches its midpoint. What is called solubility is the concentration that dissolves in the medium under given conditions. In general, half-life refers to the time in which the quantity being followed falls by half. One may read the logD as the decadic logarithm of the distribution of all forms, ionised or not, between an organic phase and buffer at a given pH. High values mean a more lipophilic compound, low ones a more hydrophilic compound.

Each structure is given as a SMILES string. In brackets after ≈: the same amount, converted by molar mass. Activity calls are given as the source filed them. No cut-off for these calls is given here. A value given as a limit tells only on which side of the number the result lay.

The target in data set [1] is Nucleotide-binding oligomerization domain-containing protein 2 (Homo sapiens, UniProt Q9HC29). The data set can be described thus: Inhibition of human NOD2 expressed in HEK-Blue hNOD2 cells coexpressing NF-kappaB-inducible SEAP reporter gene assessed as inhibition of NF-kappaB transcriptional activity by measuring decrease in SEAP activity preincubated for 30 mins followed by C12-iE-DAP addition and measured after 18 hrs by absorbance based spectrophotometric analysis. The data set is classed as cell-based. (A reporter such as luciferase makes a cellular process visible.)

For data set [2], the target named is Receptor-interacting serine/threonine-protein kinase 2 (Homo sapiens, UniProt O43353). The data set can be described thus: Inhibition of human recombinant RIPK2 (1 to 317 residues) expressed in Sf21 insect cells using MBP as substrate preincubated for 10 mins followed by substrate addition and measured after 1 hr by ADP-Glo luminescence assay.
Data set [3] relates to HEK-Blue hNOD1. The data set can be described thus: Anti-inflammatory activity in HEK-Blue hNOD1 cells assessed as reduction in C12-iE-DAP stimulated IL-8 secretion at 0.01 to 1 uM preincubated for 1 hr followed by C12-iE-DAP addition and measured after 22 hrs by fluorescence based analysis. Type of data set: functional, cell-based. The conditions noted are these: Homo sapiens, dose 0.01-1 µM, time 23.0 hrs.

In data set [4] the target is T1, Nucleotide-binding oligomerization domain-containing protein 1 (Homo sapiens, UniProt Q9Y239).
T1 sequence (Q9Y239 whole entry): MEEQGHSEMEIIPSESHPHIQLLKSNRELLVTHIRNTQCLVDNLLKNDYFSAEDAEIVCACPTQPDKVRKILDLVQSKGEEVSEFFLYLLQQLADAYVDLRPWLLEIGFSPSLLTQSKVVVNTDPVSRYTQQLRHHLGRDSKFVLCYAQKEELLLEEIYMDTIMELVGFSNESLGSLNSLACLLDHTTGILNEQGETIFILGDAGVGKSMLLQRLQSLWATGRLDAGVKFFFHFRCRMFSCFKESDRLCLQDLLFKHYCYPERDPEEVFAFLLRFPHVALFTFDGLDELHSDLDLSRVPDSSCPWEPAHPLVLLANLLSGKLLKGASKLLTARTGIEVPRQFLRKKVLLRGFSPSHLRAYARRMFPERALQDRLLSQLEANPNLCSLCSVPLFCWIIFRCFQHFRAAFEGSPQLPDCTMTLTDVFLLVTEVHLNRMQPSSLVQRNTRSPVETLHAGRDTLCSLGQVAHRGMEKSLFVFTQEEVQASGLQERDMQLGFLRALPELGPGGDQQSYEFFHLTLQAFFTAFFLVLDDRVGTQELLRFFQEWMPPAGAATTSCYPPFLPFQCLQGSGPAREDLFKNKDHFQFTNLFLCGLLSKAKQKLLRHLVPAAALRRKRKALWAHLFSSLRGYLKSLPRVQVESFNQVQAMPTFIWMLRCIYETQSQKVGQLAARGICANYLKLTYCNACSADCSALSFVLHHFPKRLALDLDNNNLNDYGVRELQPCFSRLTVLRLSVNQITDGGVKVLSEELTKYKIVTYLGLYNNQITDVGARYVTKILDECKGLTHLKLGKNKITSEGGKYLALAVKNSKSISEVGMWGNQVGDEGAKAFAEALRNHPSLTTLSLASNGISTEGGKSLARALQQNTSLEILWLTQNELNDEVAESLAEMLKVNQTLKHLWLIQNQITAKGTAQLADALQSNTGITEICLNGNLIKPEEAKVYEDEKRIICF
The data set can be described thus: Inhibition of human NOD1 expressed in HEK-Blue hNOD1 cells coexpressing NF-kappaB-inducible SEAP reporter gene assessed as inhibition of NF-kappaB transcriptional activity by measuring decrease in SEAP activity preincubated for 30 mins followed by C12-iE-DAP addition and measured after 18 hrs by absorbance based spectrophotometric analysis. The data set is classed as cell-based.

The nature of data set [5]: Cytotoxicity against HEK-Blue hNOD1 cells assessed as reduction in cell viability at 1 uM measured after 72 hrs by celltiter 96 aqueous one solution cell proliferation assay. The data set is classed as toxicity, cell-based. To be noted: human, hek-blue hnod1, 72 h.
Data set [6] deals with Huh-7. The data set is described as follows: Cytotoxicity against human Huh-7 cells assessed as reduction in cell viability at 1 uM measured after 72 hrs by celltiter 96 aqueous one solution cell proliferation assay. Type of data set: toxicity, cell-based. The conditions noted are these: huh-7, 72 h.
A short description of data set [7]: Cytotoxicity against human THP1-Blue NF-kappaB cells assessed as reduction in cell viability at 1 uM measured after 72 hrs by celltiter 96 aqueous one solution cell proliferation assay. The data set is classed as toxicity, cell-based.
The nature of data set [8]: Inhibition of recombinant VEGFR (unknown origin) using PGT as substrate preincubated for 10 mins followed by substrate addition and measured after 1 hr by ADP-Glo luminescence assay. The arrangement: species or system Homo sapiens. (In ADP-Glo the light output rises with the ADP produced.)
The target in data set [9] is Epidermal growth factor receptor (Homo sapiens, UniProt P00533). The data set is described as follows: Inhibition of recombinant EGFR (unknown origin) using PGT as substrate preincubated for 10 mins followed by substrate addition and measured after 1 hr in presence of ATP by ADP-Glo luminescence assay.
Data set [10] in a line: Solubility of the compound in PBS buffer at pH 7.4. The data set is classed as physicochemical.
Data set [11] can be described thus: Stability in plasma (unknown origin) assessed as half life. Type of data set: ADME, cell-free.
The nature of data set [12]: Lipophilicity, logD of compound at pH 7.4. The data set is classed as physicochemical. To be noted: buffer.
A short description of data set [13]: Metabolic stability in liver microsomes (unknown origin) assessed as half life. Type of data set: ADME, Microsome. Background: Liver microsomes are vesicles of endoplasmic reticulum, rich in cytochrome P450 enzymes.
The nature of data set [14]: Metabolic stability in liver microsomes (unknown origin) assessed as intrinsic clearance. Type of data set: ADME, Microsome. To be noted: read-out: CLH.

Sequence of Nucleotide-binding oligomerization domain-containing protein 2 (Q9HC29 whole entry, the tested form may be a part): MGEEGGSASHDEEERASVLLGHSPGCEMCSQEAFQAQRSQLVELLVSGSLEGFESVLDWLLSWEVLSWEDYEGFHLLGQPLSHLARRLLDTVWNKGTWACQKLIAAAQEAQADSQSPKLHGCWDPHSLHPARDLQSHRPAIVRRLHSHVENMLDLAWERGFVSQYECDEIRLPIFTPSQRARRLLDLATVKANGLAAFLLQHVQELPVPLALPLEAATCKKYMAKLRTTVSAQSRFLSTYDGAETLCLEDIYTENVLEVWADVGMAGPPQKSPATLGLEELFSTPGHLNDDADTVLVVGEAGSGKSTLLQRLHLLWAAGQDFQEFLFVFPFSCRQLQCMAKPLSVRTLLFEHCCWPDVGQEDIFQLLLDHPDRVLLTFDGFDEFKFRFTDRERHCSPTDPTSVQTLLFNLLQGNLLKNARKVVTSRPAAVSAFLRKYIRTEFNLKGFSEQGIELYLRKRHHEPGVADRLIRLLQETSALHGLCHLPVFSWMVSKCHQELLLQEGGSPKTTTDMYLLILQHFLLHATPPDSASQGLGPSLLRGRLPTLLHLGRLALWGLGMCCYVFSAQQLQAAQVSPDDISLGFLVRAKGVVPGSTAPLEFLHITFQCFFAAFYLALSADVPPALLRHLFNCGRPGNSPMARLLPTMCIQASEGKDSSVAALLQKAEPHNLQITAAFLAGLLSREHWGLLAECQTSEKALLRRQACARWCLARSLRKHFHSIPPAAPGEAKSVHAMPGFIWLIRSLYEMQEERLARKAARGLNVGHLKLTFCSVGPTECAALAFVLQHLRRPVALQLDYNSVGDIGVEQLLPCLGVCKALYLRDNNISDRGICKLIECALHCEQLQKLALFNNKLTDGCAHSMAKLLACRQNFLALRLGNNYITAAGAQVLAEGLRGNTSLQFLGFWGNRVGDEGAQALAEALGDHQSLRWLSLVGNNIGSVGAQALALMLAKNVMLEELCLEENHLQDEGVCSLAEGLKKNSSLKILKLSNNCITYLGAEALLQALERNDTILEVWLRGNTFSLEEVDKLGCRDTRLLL
Sequence of Epidermal growth factor receptor (P00533 whole entry): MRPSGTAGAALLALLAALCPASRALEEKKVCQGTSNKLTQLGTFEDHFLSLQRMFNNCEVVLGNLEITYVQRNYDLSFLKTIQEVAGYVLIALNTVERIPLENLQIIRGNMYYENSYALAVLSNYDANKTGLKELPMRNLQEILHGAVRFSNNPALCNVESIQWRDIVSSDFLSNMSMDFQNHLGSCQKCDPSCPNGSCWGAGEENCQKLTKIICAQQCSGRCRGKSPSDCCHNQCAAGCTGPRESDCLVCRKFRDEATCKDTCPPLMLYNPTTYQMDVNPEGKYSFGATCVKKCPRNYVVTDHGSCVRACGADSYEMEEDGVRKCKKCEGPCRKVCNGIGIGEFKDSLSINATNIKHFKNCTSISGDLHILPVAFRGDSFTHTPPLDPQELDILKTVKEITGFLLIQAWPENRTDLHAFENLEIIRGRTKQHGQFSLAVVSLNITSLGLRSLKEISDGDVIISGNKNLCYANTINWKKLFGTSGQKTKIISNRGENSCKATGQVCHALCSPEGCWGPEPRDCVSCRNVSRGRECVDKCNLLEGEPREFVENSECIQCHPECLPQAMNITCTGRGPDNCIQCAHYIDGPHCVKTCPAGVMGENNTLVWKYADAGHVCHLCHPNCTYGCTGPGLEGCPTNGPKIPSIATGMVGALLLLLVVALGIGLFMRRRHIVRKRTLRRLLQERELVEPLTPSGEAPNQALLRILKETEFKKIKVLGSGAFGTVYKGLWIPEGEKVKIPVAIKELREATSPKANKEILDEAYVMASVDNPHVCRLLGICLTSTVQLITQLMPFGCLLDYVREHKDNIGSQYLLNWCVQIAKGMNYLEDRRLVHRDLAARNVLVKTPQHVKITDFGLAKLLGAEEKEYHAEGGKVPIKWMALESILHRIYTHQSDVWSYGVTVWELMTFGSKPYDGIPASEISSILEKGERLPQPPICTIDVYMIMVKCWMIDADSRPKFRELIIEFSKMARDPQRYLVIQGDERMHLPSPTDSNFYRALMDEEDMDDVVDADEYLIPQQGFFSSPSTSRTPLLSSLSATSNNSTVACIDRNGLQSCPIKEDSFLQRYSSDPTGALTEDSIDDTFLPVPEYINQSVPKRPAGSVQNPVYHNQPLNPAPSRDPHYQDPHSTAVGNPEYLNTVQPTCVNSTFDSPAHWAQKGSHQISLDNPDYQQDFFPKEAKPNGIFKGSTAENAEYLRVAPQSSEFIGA
Sequence of Receptor-interacting serine/threonine-protein kinase 2 (O43353 whole entry, the tested form may be a part): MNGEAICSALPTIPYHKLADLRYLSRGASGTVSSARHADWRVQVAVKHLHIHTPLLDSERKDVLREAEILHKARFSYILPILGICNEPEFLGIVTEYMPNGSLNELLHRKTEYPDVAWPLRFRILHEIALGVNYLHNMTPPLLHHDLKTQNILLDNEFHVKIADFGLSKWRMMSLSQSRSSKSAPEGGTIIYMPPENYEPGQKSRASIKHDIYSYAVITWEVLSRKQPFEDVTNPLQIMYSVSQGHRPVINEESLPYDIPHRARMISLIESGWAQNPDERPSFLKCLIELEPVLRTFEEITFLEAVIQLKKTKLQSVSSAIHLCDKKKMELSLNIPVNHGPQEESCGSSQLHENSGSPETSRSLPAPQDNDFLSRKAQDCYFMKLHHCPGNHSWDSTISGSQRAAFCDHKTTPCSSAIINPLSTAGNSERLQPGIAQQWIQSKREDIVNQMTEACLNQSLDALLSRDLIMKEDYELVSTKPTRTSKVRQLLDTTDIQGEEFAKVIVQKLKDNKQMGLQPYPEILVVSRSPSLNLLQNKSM

With `COc1cc2ncnc(-n3nc(N)c4cc(F)ccc43)c2cc1OC`, the IC50 in [1] was greater than 10 µM.
Take `COc1cc2ncnc(Nc3cc(N)ccn3)c2cc1OC`: the IC50 in [1] is greater than 10 µM.
As to `COc1cc2ncnc(Nc3cc(Br)ccc3Br)c2cc1OC`, the IC50 in data set [1] is greater than 10 µM.
As to `COc1cc2ncnc(Nc3ccc(Cl)c(Cl)c3)c2cc1OC`, the IC50 in data set [1] is greater than 10 µM.
In the case of `COc1cc2ncnc(Nc3ccc(Br)c(O)c3)c2cc1OC`, the IC50 in [1] was greater than 10 µM.
For `Cc1ccc(S(=O)(=O)n2c(N)nc3ccccc32)cc1`, the IC50 is greater than 10 µM in data set [1] and greater than 1 µM in data set [2]. In addition, the result in data set [3] was inactive.
Turning to `COc1cc2ncnc(Nc3ccncc3)c2cc1OC`, the IC50 in data set [1] is greater than 10 µM.
As to `COc1cc2ncnc(Nc3ccc(F)c(Cl)c3)c2cc1OCCCN1CCOCC1` [GEFITINIB], the IC50 in [4] stood at 0.605 µM; in [1], 1.08 µM. Also, the Activity result in [5], in [6] and in data set [7] was “Non-toxic” each time.
As to `COc1ccc(Cl)c(Nc2ncnc3cc(OC)c(OC)cc23)c1`, the IC50 in data set [4] is 0.686 µM; in [1], greater than 10 µM.
On to `COc1cc2ncnc(Nc3ccc(F)c(O)c3)c2cc1OC`, for which the values for the IC50 in data set [1], in data set [8] and in [9] were greater than 10 µM, 0.00302 µM and 0.00255 µM, respectively. In addition, the Activity entry in [5], in data set [6] and in data set [7] was “Non-toxic” throughout.
For `COc1cc2ncnc(Nc3ccccc3)c2cc1OC`, the IC50 in [4] and in [1] was greater than 10 µM throughout.
In the case of `COc1cc2ncnc(Nc3ccc(Cl)c(N)c3)c2cc1OC`, the IC50 in data set [1] is greater than 10 µM; in [9], 0.00046 µM. Further, the Activity entry in data set [5], in data set [6] and in [7] was “Non-toxic” in each case.
As to `COc1cc2ncnc(Nc3ccc(F)c(Cl)c3)c2cc1OC`, the results for the 50% inhibitory concentration (IC50) in data set [4] and in data set [1] were 1.34 µM and greater than 10 µM, respectively.
For `COc1cc2ncnc(Nc3cc(O)c(Cl)cc3Cl)c2cc1OC` the same measures were greater than 10 µM and greater than 10 µM.
For `COc1cc2ncnc(Nc3cccc(N)c3)c2cc1OC`, the IC50 in [4] and in [1] was greater than 10 µM in each case.
As for `COc1cc2ncnc(Nc3ccc4scnc4c3)c2cc1OC.Cl`, the IC50 was greater than 10 µM in [1] and 0.036 µM in data set [9]. Also, the Activity entry in data set [5], in [6] and in data set [7] was “Non-toxic” in each case.
For the molecule `COc1cc2ncnc(Nc3ccc(Cl)cc3)c2cc1OC`, the IC50 in [4] was 0.283 µM; in data set [1] it was greater than 10 µM.
Take `COc1cc2ncnc(Nc3cccc(O)c3)c2cc1OC`: the IC50 in data set [4] is 0.157 µM; in data set [1], greater than 10 µM.
With `COc1cc(Nc2ncnc3c(OC)c(OC)c(OC)cc23)c(Cl)cc1Cl`, in data set [1], the IC50 is greater than 10 µM.
On the same count and under the same terms, for `COCCOc1cc2ncnc(Nc3cc(OC)c(Cl)cc3Cl)c2cc1OCCOC` the value was greater than 10 µM.
As to `COc1cc(Nc2ncnc3cc(OC)c(OC)cc23)c(Cl)cc1Cl`, the values for the IC50 in data set [1] and in data set [9] were greater than 10 µM and 0.0613 µM, respectively. The Activity result in data set [5], in data set [6] and in data set [7] was “Non-toxic” each time.
Turning to `CCN(CC)CCOc1ccc2c(Nc3cc(OC)c(Cl)cc3Cl)ncnc2c1`, the IC50 in [1] was greater than 10 µM.
For the molecule `COc1cc2ncnc(Nc3ccc(Cl)c(O)c3)c2cc1OC.Cl`, the IC50 in [4] is 0.033 µM; in data set [1] it was greater than 10 µM; in data set [8] it was 0.00139 µM; in data set [9], 0.00084 µM. In addition, the Activity result in data set [5], in data set [6] and in data set [7] was “Non-toxic” each time.
As to `COc1cc2ncnc(Nc3ccc(Br)cc3F)c2cc1OC`, the IC50 in [4] was 0.549 µM; in data set [1], greater than 10 µM.
On to `COc1cc(Nc2ncnc3cc(OC)c(OC)cc23)ccc1Cl`, for which the IC50 in data set [1] was greater than 10 µM.
Regarding `COc1cc2ncnc(Nc3cccc(Cl)c3)c2cc1OC`, the IC50 in data set [4] and in data set [1] was greater than 10 µM each time.
Regarding `COc1cc2ncnc(Nc3ccccc3Cl)c2cc1OC`, the IC50 in data set [1] was greater than 10 µM.
In the case of `CCCS(=O)(=O)Nc1cc(-c2cc(-c3ccc(N4CCNCC4)cc3)cnc2N)cc(F)c1OC`, the IC50 worked out at 0.219 µM in data set [1] and 0.00193 µM in data set [2].
On to `COc1cc(Nc2ncnc3cc(OC)c(OC)cc23)c(F)cc1Br`, for which the IC50 in [1] was greater than 10 µM.
With `COc1cc2ncnc(Nc3n[nH]c(C)c3C)c2cc1OC`, the IC50 in data set [4] and in [1] was greater than 10 µM in each case.
As for `COc1cc2ncnc(Nc3ccc(Cl)cc3Cl)c2cc1OC`, the 50% inhibitory concentration (IC50) in [4] and in [1] was greater than 10 µM throughout.
For the molecule `CCN(CC)CCOc1cc2ncnc(Nc3cc(OC)c(Cl)cc3Cl)c2cc1OC`, the concentration for half-maximal inhibition (IC50) is 0.042 µM in data set [4], greater than 10 µM in data set [1], greater than 1 µM in data set [8] and greater than 1 µM in [9]. Moreover, in [10], the solubility stood at 31 µM (≈ 14.4 µg/mL). Besides, the half-life in data set [11] was greater than 6 h; in [13], greater than 0.667 h. The logD in [12] was 0.88. Further, the microsomal CLint in [14] came out at 29 µL/min/mg. The Activity entry in data set [5], in data set [6] and in data set [7] was “Non-toxic” throughout.
`COc1cc2ncnc(Nc3n[nH]c4ccc(F)cc34)c2cc1OC`: the IC50 in data set [1] is greater than 10 µM.
In the case of `CCN(CC)CCOc1cc2c(Nc3cc(OC)c(Cl)cc3Cl)ncnc2cc1OC`, in [1], the IC50 was greater than 10 µM.

The values are drawn from ChEMBL document CHEMBL6092202, “4-Anilinoquinazoline Derivatives as the First Potent NOD1-RIPK2 Signaling Pathway Inhibitors at the Nanomolar Range” (J Med Chem, 2024).
